According to publication PMC9090141 (Pediatric blood & cancer, 2021):
Entries after “also recorded” stand apart in the source; their conditions may differ. Structures can show the parent of a compound that is named as a salt. Where two headings read alike, the source gives them in different places.

Test system: pediatric patients with recurrent or refractory solid and CNS tumors
[1] = Dose Level 1, 80 mg/m^2, Part A, 6 evaluable
[2] = Dose Level 2, 100 mg/m^2, Part A, 5 evaluable
[3] = Dose Level 3, 125 mg/m^2, Part A, 4 evaluable
[4] = Dose Level 4, 150 mg/m^2, Part A, 5 evaluable
[5] = Dose Level 4, 150 mg/m^2, Part PK (expansion cohort), 5 evaluable
[6] = cycle 1, All Dose Levels (N=25)
[7] = cycle 1, Dose Level 1 (N=6), 80 mg/m^2
[8] = cycle 1, Dose Level 2 (N=5), 100 mg/m^2

**Q.** With `COc1cccc(OCCCN)c1-c1cc(Nc2cnc(C#N)cn2)n[nH]1` [prexasertib, Prexasertib mesylate monohydrate] as the compound, how does the “Grade 4 neutropenia, patients” value (22/25 patients) read?
**A.** The value was 88%.

**Q.** What about the “No. of Patients with Cycle 1 DLTs” value [1] of the same compound?
**A.** The value was 0.

**Q.** And the “No. of Patients with Later-Cycle DLTs” value [1]?
**A.** The value was 0.

**Q.** And the “No. of Patients with Cycle 1 DLTs” value [2]?
**A.** The value was 0.

**Q.** And the “No. of Patients with Later-Cycle DLTs” value [2]?
**A.** The value was 0.

**Q.** What about the “No. of Patients with Cycle 1 DLTs” value [3] of the same compound?
**A.** Its value is 0.

**Q.** And the “No. of Patients with Later-Cycle DLTs” value [3]?
**A.** The value was 0.

**Q.** And the “No. of Patients with Cycle 1 DLTs” value [4]?
**A.** The value was 0.

**Q.** And the “No. of Patients with Later-Cycle DLTs” value [4]?
**A.** The value was 0.

**Q.** And the “No. of Patients with Cycle 1 DLTs” value [5]?
**A.** Its value is 0.

**Q.** What about the “No. of Patients with Later-Cycle DLTs” value [5] of the same compound?
**A.** The value was 0.

**Q.** And the “maximum tolerated dose (MTD)” value (IV days 1 and 15 of 28-day cycle, up to 150 mg/m^2)?
**A.** Its value is “not defined; also recorded: not reached; also recorded: did not reach”.

**Q.** What about the “Alanine aminotransferase increased, All” value [6] of the same compound?
**A.** Its value is 5 (20) No. (%).

**Q.** And the “Alanine aminotransferase increased, ≥ Grade 3” value [6]?
**A.** The value was 1 (4) No. (%).

**Q.** What about the “Anemia, All” value [6] of the same compound?
**A.** The value was 19 (76) No. (%).

**Q.** And the “Anemia, ≥ Grade 3” value [6]?
**A.** The value was 3 (12) No. (%).

**Q.** What about the “Anorexia, All” value [6] of the same compound?
**A.** The value was 3 (12) No. (%).

**Q.** What about the “Anorexia, ≥ Grade 3” value [6] of the same compound?
**A.** Its value is 0 (0) No. (%).

**Q.** And the “Aspartate aminotransferase increased, All” value [6]?
**A.** Its value is 4 (16) No. (%).

**Q.** And the “Aspartate aminotransferase increased, ≥ Grade 3” value [6]?
**A.** The value was 0 (0) No. (%).

**Q.** And the “Diarrhea, All” value [6]?
**A.** Its value is 4 (16) No. (%).

**Q.** What about the “Diarrhea, ≥ Grade 3” value [6] of the same compound?
**A.** The value was 0 (0) No. (%).

**Q.** What about the “Electrocardiogram QT corrected interval prolonged, All” value [6] of the same compound?
**A.** The value was 9 (36) No. (%).

**Q.** What about the “Electrocardiogram QT corrected interval prolonged, ≥ Grade 3” value [6] of the same compound?
**A.** The value was 0 (0) No. (%).

**Q.** And the “Fatigue, All” value [6]?
**A.** The value was 6 (24) No. (%).

**Q.** What about the “Fatigue, ≥ Grade 3” value [6] of the same compound?
**A.** Its value is 0 (0) No. (%).

**Q.** And the “Headache, All” value [6]?
**A.** The value was 3 (12) No. (%).

**Q.** What about the “Headache, ≥ Grade 3” value [6] of the same compound?
**A.** The value was 0 (0) No. (%).

**Q.** And the “Hypokalemia, All” value [6]?
**A.** The value was 5 (20) No. (%).

**Q.** And the “Hypokalemia, ≥ Grade 3” value [6]?
**A.** The value was 0 (0) No. (%).

**Q.** And the “Hypophosphatemia, All” value [6]?
**A.** The value was 4 (16) No. (%).

**Q.** What about the “Hypophosphatemia, ≥ Grade 3” value [6] of the same compound?
**A.** The value was 0 (0) No. (%).

**Q.** And the “Infusion-related reaction, All” value [6]?
**A.** The value was 3 (12) No. (%).

**Q.** And the “Infusion-related reaction, ≥ Grade 3” value [6]?
**A.** The value was 0 (0) No. (%).

**Q.** And the “Lymphocyte count decreased, All” value [6]?
**A.** The value was 12 (48) No. (%).

**Q.** What about the “Lymphocyte count decreased, ≥ Grade 3” value [6] of the same compound?
**A.** Its value is 6 (24) No. (%).

**Q.** What about the “Myalgia, All” value [6] of the same compound?
**A.** The value was 3 (12) No. (%).

**Q.** What about the “Myalgia, ≥ Grade 3” value [6] of the same compound?
**A.** The value was 0 (0) No. (%).

**Q.** What about the “Nausea, All” value [6] of the same compound?
**A.** Its value is 5 (20) No. (%).

**Q.** What about the “Nausea, ≥ Grade 3” value [6] of the same compound?
**A.** The value was 0 (0) No. (%).

**Q.** What about the “Neutrophil count decreased, All” value [6] of the same compound?
**A.** The value was 25 (100) No. (%).

**Q.** And the “Neutrophil count decreased, ≥ Grade 3” value [6]?
**A.** The value was 25 (100) No. (%).

**Q.** And the “Platelet count decreased, All” value [6]?
**A.** Its value is 21 (84) No. (%).

**Q.** What about the “Platelet count decreased, ≥ Grade 3” value [6] of the same compound?
**A.** The value was 6 (24) No. (%).

**Q.** And the “Vomiting, All” value [6]?
**A.** The value was 6 (24) No. (%).

**Q.** And the “Vomiting, ≥ Grade 3” value [6]?
**A.** Its value is 0 (0) No. (%).

**Q.** What about the “White blood cell decreased, All” value [6] of the same compound?
**A.** Its value is 24 (96) No. (%).

**Q.** And the “White blood cell decreased, ≥ Grade 3” value [6]?
**A.** Its value is 17 (68) No. (%).

**Q.** What about the “Alanine aminotransferase increased, All” value [7] of the same compound?
**A.** Its value is 2 (33) No. (%).

**Q.** And the “Alanine aminotransferase increased, ≥ Grade 3” value [7]?
**A.** Its value is 0 (0) No. (%).

**Q.** What about the “Anemia, All” value [7] of the same compound?
**A.** The value was 5 (83) No. (%).

**Q.** What about the “Anemia, ≥ Grade 3” value [7] of the same compound?
**A.** The value was 0 (0) No. (%).

**Q.** And the “Anorexia, All” value [7]?
**A.** The value was 2 (33) No. (%).

**Q.** And the “Anorexia, ≥ Grade 3” value [7]?
**A.** Its value is 0 (0) No. (%).

**Q.** And the “Aspartate aminotransferase increased, All” value [7]?
**A.** The value was 0 (0) No. (%).

**Q.** What about the “Aspartate aminotransferase increased, ≥ Grade 3” value [7] of the same compound?
**A.** The value was 0 (0) No. (%).

**Q.** And the “Diarrhea, All” value [7]?
**A.** The value was 2 (33) No. (%).

**Q.** And the “Diarrhea, ≥ Grade 3” value [7]?
**A.** The value was 0 (0) No. (%).

**Q.** And the “Electrocardiogram QT corrected interval prolonged, All” value [7]?
**A.** Its value is 2 (33) No. (%).

**Q.** And the “Electrocardiogram QT corrected interval prolonged, ≥ Grade 3” value [7]?
**A.** The value was 0 (0) No. (%).

**Q.** What about the “Fatigue, All” value [7] of the same compound?
**A.** The value was 0 (0) No. (%).

**Q.** What about the “Fatigue, ≥ Grade 3” value [7] of the same compound?
**A.** The value was 0 (0) No. (%).

**Q.** And the “Headache, All” value [7]?
**A.** Its value is 0 (0) No. (%).

**Q.** And the “Headache, ≥ Grade 3” value [7]?
**A.** Its value is 0 (0) No. (%).

**Q.** And the “Hypokalemia, All” value [7]?
**A.** Its value is 0 (0) No. (%).

**Q.** What about the “Hypokalemia, ≥ Grade 3” value [7] of the same compound?
**A.** Its value is 0 (0) No. (%).

**Q.** And the “Hypophosphatemia, All” value [7]?
**A.** The value was 1 (17) No. (%).

**Q.** What about the “Hypophosphatemia, ≥ Grade 3” value [7] of the same compound?
**A.** The value was 0 (0) No. (%).

**Q.** What about the “Infusion-related reaction, All” value [7] of the same compound?
**A.** Its value is 1 (17) No. (%).

**Q.** What about the “Infusion-related reaction, ≥ Grade 3” value [7] of the same compound?
**A.** The value was 0 (0) No. (%).

**Q.** And the “Lymphocyte count decreased, All” value [7]?
**A.** Its value is 3 (50) No. (%).

**Q.** And the “Lymphocyte count decreased, ≥ Grade 3” value [7]?
**A.** Its value is 2 (33) No. (%).

**Q.** What about the “Myalgia, All” value [7] of the same compound?
**A.** The value was 0 (0) No. (%).

**Q.** What about the “Myalgia, ≥ Grade 3” value [7] of the same compound?
**A.** The value was 0 (0) No. (%).

**Q.** And the “Nausea, All” value [7]?
**A.** The value was 1 (17) No. (%).

**Q.** And the “Nausea, ≥ Grade 3” value [7]?
**A.** Its value is 0 (0) No. (%).

**Q.** And the “Neutrophil count decreased, All” value [7]?
**A.** Its value is 6 (100) No. (%).

**Q.** And the “Neutrophil count decreased, ≥ Grade 3” value [7]?
**A.** The value was 6 (100) No. (%).

**Q.** What about the “Platelet count decreased, All” value [7] of the same compound?
**A.** The value was 4 (67) No. (%).

**Q.** What about the “Platelet count decreased, ≥ Grade 3” value [7] of the same compound?
**A.** The value was 1 (17) No. (%).

**Q.** What about the “Vomiting, All” value [7] of the same compound?
**A.** The value was 1 (17) No. (%).

**Q.** What about the “Vomiting, ≥ Grade 3” value [7] of the same compound?
**A.** Its value is 0 (0) No. (%).

**Q.** And the “White blood cell decreased, All” value [7]?
**A.** The value was 5 (83) No. (%).

**Q.** And the “White blood cell decreased, ≥ Grade 3” value [7]?
**A.** Its value is 4 (67) No. (%).

**Q.** And the “Alanine aminotransferase increased, All” value [8]?
**A.** Its value is 2 (40) No. (%).

**Q.** And the “Alanine aminotransferase increased, ≥ Grade 3” value [8]?
**A.** The value was 1 (20) No. (%).

**Q.** And the “Anemia, All” value [8]?
**A.** The value was 3 (60) No. (%).

**Q.** What about the “Anemia, ≥ Grade 3” value [8] of the same compound?
**A.** Its value is 1 (20) No. (%).

**Q.** What about the “Anorexia, All” value [8] of the same compound?
**A.** Its value is 0 (0) No. (%).

**Q.** And the “Anorexia, ≥ Grade 3” value [8]?
**A.** The value was 0 (0) No. (%).

**Q.** What about the “Aspartate aminotransferase increased, All” value [8] of the same compound?
**A.** The value was 3 (60) No. (%).

**Q.** And the “Aspartate aminotransferase increased, ≥ Grade 3” value [8]?
**A.** Its value is 0 (0) No. (%).

**Q.** And the “Diarrhea, All” value [8]?
**A.** The value was 1 (20) No. (%).

**Q.** And the “Diarrhea, ≥ Grade 3” value [8]?
**A.** The value was 0 (0) No. (%).

**Q.** And the “Electrocardiogram QT corrected interval prolonged, All” value [8]?
**A.** Its value is 1 (20) No. (%).

**Q.** What about the “Electrocardiogram QT corrected interval prolonged, ≥ Grade 3” value [8] of the same compound?
**A.** The value was 0 (0) No. (%).

**Q.** What about the “Fatigue, All” value [8] of the same compound?
**A.** Its value is 2 (40) No. (%).

**Q.** And the “Fatigue, ≥ Grade 3” value [8]?
**A.** Its value is 0 (0) No. (%).

**Q.** And the “Headache, All” value [8]?
**A.** Its value is 0 (0) No. (%).
